Patent US10550093B2, “Third generation taxoids and methods of using same” (The Research Foundation for the State University of New York, priority 2015, dated 2020)

Tests used:
Format in all cases: cell-based
[1] = system: LCC6-MDR drug resistant (Pgp+) human breast cancer cell line; experiment: Cytotoxicity of third-generation taxoids, LCC6-MDR; conditions: LCC6-MDR cells
[2] = system: PANC-1 human pancreatic cancer cell line; experiment: Cytotoxicity of third-generation taxoids, PANC-1; conditions: PANC-1 cells
[3] = system: CFPAC-1 human pancreatic cancer cell line; experiment: Cytotoxicity of third-generation taxoids, CFPAC-1; conditions: CFPAC-1 cells
[4] = system: ID8 murine ovarian cancer cell line; experiment: Cytotoxicity of third-generation taxoids, ID8; conditions: ID8 cells
[5] = system: LCC6-WT; experiment: Cytotoxicity of third-generation taxoids, LCC6-WT; conditions: LCC6-WT cells
[6] = system: MCF7 human breast cancer cell line; experiment: Cytotoxicity of third-generation taxoids, MCF7; conditions: MCF7 cells
[7] = system: NCI/ADR drug resistant (Pgp+) human ovarian cancer cell line; experiment: Cytotoxicity of third-generation taxoids, NCI/ADR; conditions: NCI/ADR-RES, NCI/ADR cells

Row | SMILES | IC50 [5] [nM] | IC50 [2] [nM] | IC50 [3] [nM] | IC50 [6] [nM] | other results
1 | CC(=O)O[C@@]12CO[C@@H]1C[C@H](O)[C@@]1(C)C(=O)[C@H](OC(=O)C3CC3)C3=C(C)[C@@H](OC(=O)[C@H](O)[C@H](CC(C)C)NC(=O)OC(C)(C)C)C[C@@](O)([C@@H](OC(=O)c4cccc(OC(F)(F)F)c4)[C@H]21)C3(C)C [SB-T-111405, 2-Debenzoyl-2-(3-trifluromethoxybenzoyl)-3′-dephenyl-10-(cyclopropanecarbonyl)-3′-(2-methylpropyl)docetaxel] |  |  |  |  | IC50 ([1]; Homo sapiens, LCC6MDR): 0.98 nM; IC50 ([2]; Homo sapiens): 0.56 nM; IC50 ([3]; Homo sapiens): 2.3 nM; IC50 ([4]; Mus musculus): 0.28 nM
2 | C=C(C)CC(NC(=O)OC(C)(C)C)C(O)C(=O)OC1CC2(O)C(OC(=O)c3cccc(OC(F)(F)F)c3)C3C4(OC(C)=O)COC4CC(O)C3(C)C(=O)C(OC(C)=O)C(=C1C)C2(C)C (stereo not shown) [SB-T-121205, 2-Debenzoyl-2-(3-trifluromethoxybenzoyl)-3′-dephenyl-10-acetyl-3′-(2-methyl-2-propenyl)docetaxel] | 0.45 | 0.76 | 0.4 | 0.23 | IC50 [4]: 0.23 nM
3 | C=C(C)CC(NC(=O)OC(C)(C)C)C(O)C(=O)OC1CC2(O)C(OC(=O)c3cccc(OC(F)F)c3)C3C4(OC(C)=O)COC4CC(O)C3(C)C(=O)C(OC(C)=O)C(=C1C)C2(C)C (stereo not shown) [SB-T-121206, 2-Debenzoyl-2-(3-difluromethoxybenzoyl)-3′-dephenyl-10-acetyl-3′-(2-methyl-2-propenyl)docetaxel] | 0.28 | 0.49 | 0.23 | 0.31 | IC50 [4]: 0.35 nM
4 | C=C(C)CC(NC(=O)OC(C)(C)C)C(O)C(=O)OC1CC2(O)C(OC(=O)c3cccc(OC(F)(F)F)c3)C3C4(OC(C)=O)COC4CC(O)C3(C)C(=O)C(OC(=O)CC)C(=C1C)C2(C)C (stereo not shown) [SB-T-121305, 2-Debenzoyl-2-(3-trifluromethoxybenzoyl)-3′-dephenyl-10-propanoyl-3′-(2-methyl-2-propenyl)-docetaxel] | 1.54 | 1.12 | 1.75 | 1.74 | 
5 | C=C(C)C[C@H](NC(=O)OC(C)(C)C)[C@@H](O)C(=O)O[C@H]1C[C@@]2(O)[C@@H](OC(=O)c3cccc(OC(F)F)c3)[C@@H]3[C@]4(OC(C)=O)CO[C@@H]4C[C@H](O)[C@@]3(C)C(=O)[C@H](OC(=O)CC)C(=C1C)C2(C)C [SB-T-121306, 2-Debenzoyl-2-(3-difluromethoxybenzoyl)-3′-dephenyl-10-propanoyl-3′-(2-methyl-2-propenyl)docetaxel] | 0.81 | 0.49 | 0.17 | 0.54 | 
6 | CC(=O)O[C@@]12CO[C@@H]1C[C@H](O)[C@@]1(C)C(=O)[C@H](OC(=O)C3CC3)C3=C(C)[C@@H](OC(=O)[C@H](O)[C@H](C=C(C)C)NC(=O)OC(C)(C)C)C[C@@](O)([C@@H](OC(=O)c4cccc(OC(F)(F)F)c4)[C@H]21)C3(C)C [SB-T-121405] | 1.01 |  |  |  | IC50 ([2]; Homo sapiens): 0.32 nM; IC50 ([3]; Homo sapiens): 0.36 nM; IC50 ([6]; Homo sapiens): 0.98 nM; IC50 ([4]; Mus musculus): 0.33 nM
7 | C=C(C)CC(NC(=O)OC(C)(C)C)C(O)C(=O)OC1CC2(O)C(OC(=O)c3cccc(OC(F)F)c3)C3C4(OC(C)=O)COC4CC(O)C3(C)C(=O)C(OC(=O)C3CC3)C(=C1C)C2(C)C (stereo not shown) [SB-T-121406, 2-Debenzoyl-2-(3-difluromethoxybenzoyl)-3′-dephenyl-10-cyclopropanecarbonyl-3′-(2-methyl-2-propenyl)docetaxel] | 0.33 | 0.75 | 0.31 | 0.29 | 
8 | C=C(C)CC(NC(=O)OC(C)(C)C)C(O)C(=O)OC1CC2(O)C(OC(=O)c3cccc(OC(F)(F)F)c3)C3C4(OC(C)=O)COC4CC(O)C3(C)C(=O)C(OC(=O)N(C)C)C(=C1C)C2(C)C (stereo not shown) [SB-T-121605, 2-Debenzoyl-2-(3-trifluromethoxybenzoyl)-3′-dephenyl-10-(N,N-dimethylcarbamoyl)-3′-(2-methyl-2-propenyl)docetaxel] |  | 0.54 | 0.56 |  | IC50 [4]: 0.25 nM
9 | C=C(C)CC(NC(=O)OC(C)(C)C)C(O)C(=O)OC1CC2(O)C(OC(=O)c3cccc(OC(F)(F)F)c3)C3C4(OC(C)=O)COC4CC(O)C3(C)C(=O)C(OC(=O)OC)C(=C1C)C2(C)C (stereo not shown) [SB-T-121705, 2-Debenzoyl-2-(3-trifluromethoxybenzoyl)-3′-dephenyl-10-(methoxycarbonyl)-3′-(2-methyl-2-propenyl)docetaxel] | 0.59 | 1.17 | 0.8 | 0.98 | 
10 | C=C(C)CC(NC(=O)OC(C)(C)C)C(O)C(=O)OC1CC2(O)C(OC(=O)c3cccc(OC(F)F)c3)C3C4(OC(C)=O)COC4CC(O)C3(C)C(=O)C(OC(=O)OC)C(=C1C)C2(C)C (stereo not shown) [SB-T-121706] | 0.46 | 1.06 | 0.15 | 0.12 | 
11 | C=C(C)CC(NC(=O)OC(C)(C)C)C(O)C(=O)OC1CC2(O)C(OC(=O)c3cccc(OC(F)(F)F)c3)C3C4(OC(C)=O)COC4CC(O)C3(C)C(=O)C(OC)C(=C1C)C2(C)C (stereo not shown) [SB-T-123005, 2-Debenzoyl-2-(3-trifluromethoxybenzoyl)-10-methyl-3′-dephenyl-3′-(2-methyl-2-propenyl)-docetaxel] |  | 0.87 | 7.3 | 2.46 | IC50 [4]: 1.43 nM
12 | C=C(C)CC(NC(=O)OC(C)(C)C)C(O)C(=O)OC1CC2(O)C(OC(=O)c3cccc(OC(F)(F)F)c3)C3C4(OC(C)=O)COC4CC(OC)C3(C)C(=O)C(OC)C(=C1C)C2(C)C (stereo not shown) [SB-T-1230105, 2-Debenzoyl-2-(3-trifluromethoxybenzoyl)-7,10-dimethyl-3′-dephenyl-3′-(2-methyl-2-propenyl)-docetaxel] | 0.55 | 0.98 |  |  | IC50 [1]: 6.98 nM
13 | C=C(C)CC(NC(=O)OC(C)(C)C)C(O)C(=O)OC1CC2(O)C(OC(=O)c3cccc(OC(F)F)c3)C3C4(OC(C)=O)COC4CC(OC)C3(C)C(=O)C(OC)C(=C1C)C2(C)C (stereo not shown) [SB-T-1230106, 2-Debenzoyl-2-(3-difluromethoxybenzoyl)-7,10-dimethyl-3′-dephenyl-3′-(2-methyl-2-propenyl)-docetaxel] | 0.72 |  |  |  | IC50 [1]: 4.7 nM
14 | CC(=O)O[C@H]1C(=O)[C@@]2(C)[C@H]([C@H](OC(=O)c3ccccc3)[C@]3(O)C[C@H](OC(=O)[C@H](O)[C@@H](NC(=O)c4ccccc4)c4ccccc4)C(C)=C1C3(C)C)[C@]1(OC(C)=O)CO[C@@H]1C[C@@H]2O [paclitaxel, reference compound] | 3.1 |  |  |  | IC50 ([1]; Homo sapiens, LCC6MDR): 346 nM; IC50 ([2]; Homo sapiens): 3.78 nM; IC50 ([3]; Homo sapiens): 68 nM; IC50 ([6]; Homo sapiens): 3.13 nM; IC50 ([4]; Mus musculus): 2.02 nM; IC50 [7]: 361 nM
